The text below walks through data of article PMC9428674 (RSC Chemical Biology, 2022).

The subject of one series is NTAQ1. In words: Western blot verification of NTAQ1 degradation. The settings on record: 100 nM MLN4924 pre-treatment for 2 hours. Background: Immunoblotting shows a protein as a band on a membrane.
The conditions of series [1]: cited from earlier work.

In the case of `NS(=O)(=O)OC[C@@H]1C[C@@H](n2ccc3c(N[C@H]4CCc5ccccc54)ncnc32)C[C@@H]1O` [MLN4924], the “effect of pre-treatment on NTAQ1 downregulation by EM12-FS” value in the series with NTAQ1 was “rescued downregulation of NTAQ1 by EM12-FS”.

As to `Nc1cccc2c1CN(C1CCC(=O)NC1=O)C2=O` (stereo not shown) [lenalidomide], the human plasma half-life in series [1] was 4.73 h.

As for `Nc1cccc2c1C(=O)N(C1CCC(=O)NC1=O)C2=O` (stereo not shown) [pomalidomide], in series [1], the human plasma half-life was 2.65 h.

With `O=C1CCC(N2C(=O)c3ccccc3C2=O)C(=O)N1` (stereo not shown) [thalidomide], in series [1], the human plasma half-life is 0.367 h.
